Assay [1] deals with T1, ferrochelatase variant P255G (Mus musculus, UniProt P22315, P308G).
T1 construct: In wild-type, murine, mature ferrochelatase, five tryptophan residues; penta-histidine tag (N); made in house; host or cells: E. coli BL21(DE3)
T1 sequence (P22315 54-422 P308G): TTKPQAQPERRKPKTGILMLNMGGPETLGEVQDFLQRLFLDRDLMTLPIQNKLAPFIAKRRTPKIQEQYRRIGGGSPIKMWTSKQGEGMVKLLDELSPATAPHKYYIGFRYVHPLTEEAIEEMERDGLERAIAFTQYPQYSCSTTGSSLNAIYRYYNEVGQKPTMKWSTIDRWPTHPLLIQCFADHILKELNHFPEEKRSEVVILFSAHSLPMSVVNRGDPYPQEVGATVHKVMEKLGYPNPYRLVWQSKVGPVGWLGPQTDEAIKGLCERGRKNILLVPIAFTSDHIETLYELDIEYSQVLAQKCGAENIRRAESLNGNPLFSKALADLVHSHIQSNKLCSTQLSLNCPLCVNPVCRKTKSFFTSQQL
Briefly: Fluorescence titration of NMPP binding (quenching of intrinsic protein fluorescence). The note with it: 10 mM Tris-acetate pH 8, 0.05% Tween-80, read-out: dissociation constant (Kd) of NMPP. The arrangement: species or system murine. The procedure: (§1) Aliquots of NMPP were added to a solution of enzyme in 10 mM Tris-acetate, pH 8 containing 0.05% Tween-80 and incubated on ice for 1 hr. The intrinsic protein fluorescence was monitored at 331 nm (λex=283 nm). The Kd value for NMPP was determined by fitting the data to Equation 3. The enzymes used in each set were: A. wild-type ferrochelatase (40 nM); B. P255R (250 nM); C. P255G (120 nM).
(§2) The equilibrium constant for NMPP binding to ferrochelatase could be determined from the change in intrinsic protein fluorescence upon ligand addition. […]
(§3) Fluorescence Titration Measurements. Equilibrium fluorescence measurements were made using a Shimadzu RF-5301PC fluorimeter at 23° C. with excitation and emission wavelengths at 283 nm and 331 nm, respectively. The decrease in protein fluorescence, due to NMPP binding, was monitored. […] In a typical titration experiment, aliquots of the NMPP stock were added to the protein solution and, upon incubation on ice for 1 h, the quenching in fluorescence was monitored as described above. […] The observed fluorescence intensity was plotted against NMPP concentration and the dissociation constant of NMPP for ferrochelatase was determined using the least-squares fit of each data set to equation 3 by nonlinear regression: […]

In assay [2] the target is T2, ferrochelatase variant P255R (Mus musculus, UniProt P22315, P308R).
T2 construct: In wild-type, murine, mature ferrochelatase, five tryptophan residues; penta-histidine tag (N); made in house; host or cells: E. coli BL21(DE3)
T2 sequence (P22315 54-422 P308R): T1 sequence (P22315 54-422 P308G) with G255R
Described as above. The note with it: 10 mM Tris-acetate pH 8, 0.05% Tween-80, read-out: dissociation constant (Kd) of NMPP. The arrangement: species or system murine. The protocol:
as §1, §2, §3

Numbering of substitutions follows the chain as printed.

Broadly, the Kd is the concentration at which binding is half-saturated. For N-methyl protoporphyrin [NMPP], the dissociation constant (Kd) is 300 ± 100 nM in assay [1] and 160 ± 70 nM in assay [2].

The values above are taken from patent publication US8586530B2, “Modulation of inhibition of ferrochelatase by N-methyl protoporphyrin” (University of South Florida, priority 2006, dated 2013).
